# In ChEMBL document CHEMBL4507311, “Data for DCP probe A-1155463” (2021):
# Assays:
# [1] = target: Homeodomain-interacting protein kinase 4 (Homo sapiens) (UniProt Q8NE63); conditions: Compound concentration 1000.0 nM
# [2] = target: Mitogen-activated protein kinase kinase kinase 2 (Homo sapiens) (UniProt Q9Y2U5); conditions: Compound concentration 1000.0 nM
# [3] = target: Dual specificity mitogen-activated protein kinase kinase 3 (Homo sapiens) (UniProt P46734); conditions: Compound concentration 1000.0 nM
# [4] = target: Serine/threonine-protein kinase Nek5 (Homo sapiens) (UniProt Q6P3R8); conditions: Compound concentration 1000.0 nM
# [5] = target: Serine/threonine-protein kinase/endoribonuclease IRE1 (Homo sapiens) (UniProt O75460); conditions: Compound concentration 1000.0 nM
# [6] = target: Glycogen synthase kinase-3 alpha (Homo sapiens) (UniProt P49840); conditions: Compound concentration 1000.0 nM
# [7] = target: Serine/threonine-protein kinase PknB (Mycobacterium tuberculosis) (UniProt P9WI81); conditions: Compound concentration 1000.0 nM
# [8] = target: MAP kinase-activated protein kinase 2 (Homo sapiens) (UniProt P49137); conditions: Compound concentration 1000.0 nM
# [9] = target: Activin receptor type-2B (Homo sapiens) (UniProt Q13705); conditions: Compound concentration 1000.0 nM
# [10] = target: Phosphatidylinositol 5-phosphate 4-kinase type-2 beta (Homo sapiens) (UniProt P78356); conditions: Compound concentration 1000.0 nM
# [11] = target: Dual specificity protein kinase CLK1 (Homo sapiens) (UniProt P49759); conditions: Compound concentration 1000.0 nM
# [12] = tested on: Phosphatidylinositol 4,5-bisphosphate 3-kinase catalytic subunit alpha isoform (Homo sapiens), P42336 [Q546K]; conditions: Compound concentration 1000.0 nM
# [13] = tested on: Tyrosine-protein kinase ABL1 (Homo sapiens), P00519 [H396P]; conditions: Compound concentration 1000.0 nM
# [14] = target: Aurora kinase C (Homo sapiens) (UniProt Q9UQB9); conditions: Compound concentration 1000.0 nM
# [15] = target: AP2-associated protein kinase 1 (Homo sapiens) (UniProt Q2M2I8); conditions: Compound concentration 1000.0 nM
# [16] = target: Serine/threonine-protein kinase PAK 4 (Homo sapiens) (UniProt O96013); conditions: Compound concentration 1000.0 nM
# [17] = target: G protein-coupled receptor kinase 4 (Homo sapiens) (UniProt P32298); conditions: Compound concentration 1000.0 nM
# [18] = target: Proto-oncogene tyrosine-protein kinase receptor Ret (Homo sapiens) (UniProt P07949); conditions: Compound concentration 1000.0 nM
# [19] = target: Serine/threonine-protein kinase Sgk2 (Homo sapiens) (UniProt Q9HBY8); conditions: Compound concentration 1000.0 nM
# [20] = target: Maternal embryonic leucine zipper kinase (Homo sapiens) (UniProt Q14680); conditions: Compound concentration 1000.0 nM
# [21] = target: Tyrosine-protein kinase ABL2 (Homo sapiens) (UniProt P42684); conditions: Compound concentration 1000.0 nM
# [22] = target: Eukaryotic translation initiation factor 2-alpha kinase 1 (Homo sapiens) (UniProt Q9BQI3); conditions: Compound concentration 1000.0 nM
# [23] = target: Receptor tyrosine-protein kinase erbB-3 (Homo sapiens) (UniProt P21860); conditions: Compound concentration 1000.0 nM
# [24] = target: 3-phosphoinositide-dependent protein kinase 1 (Homo sapiens) (UniProt O15530); conditions: Compound concentration 1000.0 nM
# [25] = target: Tyrosine-protein kinase ITK/TSK (Homo sapiens) (UniProt Q08881); conditions: Compound concentration 1000.0 nM
# [26] = target: Tyrosine-protein kinase Yes (Homo sapiens) (UniProt P07947); conditions: Compound concentration 1000.0 nM
# [27] = target: Hormonally up-regulated neu tumor-associated kinase (Homo sapiens) (UniProt P57058); conditions: Compound concentration 1000.0 nM
# [28] = target: Serine/threonine-protein kinase 25 (Homo sapiens) (UniProt O00506); conditions: Compound concentration 1000.0 nM
# [29] = target: Dual specificity mitogen-activated protein kinase kinase 6 (Homo sapiens) (UniProt P52564); conditions: Compound concentration 1000.0 nM
# [30] = tested on: Receptor-type tyrosine-protein kinase FLT3 (Homo sapiens), P36888 [K663Q]; conditions: Compound concentration 1000.0 nM
# [31] = target: Insulin receptor-related protein (Homo sapiens) (UniProt P14616); conditions: Compound concentration 1000.0 nM
# [32] = target: Serine/threonine-protein kinase Sgk3 (Homo sapiens) (UniProt Q96BR1); conditions: Compound concentration 1000.0 nM
# [33] = target: Mitogen-activated protein kinase kinase kinase kinase 4 (Homo sapiens) (UniProt O95819); conditions: Compound concentration 1000.0 nM
# [34] = target: Hepatocyte growth factor receptor (Homo sapiens) (UniProt P08581); conditions: Compound concentration 1000.0 nM
# [35] = target: Serine/threonine-protein kinase PAK 6 (Homo sapiens) (UniProt Q9NQU5); conditions: Compound concentration 1000.0 nM
# [36] = target: Cyclin-dependent kinase 19 (Homo sapiens) (UniProt Q9BWU1); conditions: Compound concentration 1000.0 nM
# [37] = target: Serine/threonine-protein kinase TBK1 (Homo sapiens) (UniProt Q9UHD2); conditions: Compound concentration 1000.0 nM
# [38] = target: Proto-oncogene tyrosine-protein kinase ROS (Homo sapiens) (UniProt P08922); conditions: Compound concentration 1000.0 nM
# [39] = target: Delta-type opioid receptor (Homo sapiens, UniProt P41143); conditions: Compound concentration 10.0 uM
# [40] = target: MAP kinase-interacting serine/threonine-protein kinase 2 (Homo sapiens) (UniProt Q9HBH9); conditions: Compound concentration 1000.0 nM
# [41] = target: Phosphatidylinositol 5-phosphate 4-kinase type-2 gamma (Homo sapiens) (UniProt Q8TBX8); conditions: Compound concentration 1000.0 nM
# [42] = target: Serine/threonine-protein kinase haspin (Homo sapiens) (UniProt Q8TF76); conditions: Compound concentration 1000.0 nM
# [43] = target: NUAK family SNF1-like kinase 1 (Homo sapiens) (UniProt O60285); conditions: Compound concentration 1000.0 nM
# [44] = target: Atypical kinase COQ8B, mitochondrial (Homo sapiens) (UniProt Q96D53); conditions: Compound concentration 1000.0 nM
# [45] = target: TGF-beta receptor type-2 (Homo sapiens) (UniProt P37173); conditions: Compound concentration 1000.0 nM
# Chain of Tyrosine-protein kinase ABL2 (Homo sapiens) (P42684 whole entry): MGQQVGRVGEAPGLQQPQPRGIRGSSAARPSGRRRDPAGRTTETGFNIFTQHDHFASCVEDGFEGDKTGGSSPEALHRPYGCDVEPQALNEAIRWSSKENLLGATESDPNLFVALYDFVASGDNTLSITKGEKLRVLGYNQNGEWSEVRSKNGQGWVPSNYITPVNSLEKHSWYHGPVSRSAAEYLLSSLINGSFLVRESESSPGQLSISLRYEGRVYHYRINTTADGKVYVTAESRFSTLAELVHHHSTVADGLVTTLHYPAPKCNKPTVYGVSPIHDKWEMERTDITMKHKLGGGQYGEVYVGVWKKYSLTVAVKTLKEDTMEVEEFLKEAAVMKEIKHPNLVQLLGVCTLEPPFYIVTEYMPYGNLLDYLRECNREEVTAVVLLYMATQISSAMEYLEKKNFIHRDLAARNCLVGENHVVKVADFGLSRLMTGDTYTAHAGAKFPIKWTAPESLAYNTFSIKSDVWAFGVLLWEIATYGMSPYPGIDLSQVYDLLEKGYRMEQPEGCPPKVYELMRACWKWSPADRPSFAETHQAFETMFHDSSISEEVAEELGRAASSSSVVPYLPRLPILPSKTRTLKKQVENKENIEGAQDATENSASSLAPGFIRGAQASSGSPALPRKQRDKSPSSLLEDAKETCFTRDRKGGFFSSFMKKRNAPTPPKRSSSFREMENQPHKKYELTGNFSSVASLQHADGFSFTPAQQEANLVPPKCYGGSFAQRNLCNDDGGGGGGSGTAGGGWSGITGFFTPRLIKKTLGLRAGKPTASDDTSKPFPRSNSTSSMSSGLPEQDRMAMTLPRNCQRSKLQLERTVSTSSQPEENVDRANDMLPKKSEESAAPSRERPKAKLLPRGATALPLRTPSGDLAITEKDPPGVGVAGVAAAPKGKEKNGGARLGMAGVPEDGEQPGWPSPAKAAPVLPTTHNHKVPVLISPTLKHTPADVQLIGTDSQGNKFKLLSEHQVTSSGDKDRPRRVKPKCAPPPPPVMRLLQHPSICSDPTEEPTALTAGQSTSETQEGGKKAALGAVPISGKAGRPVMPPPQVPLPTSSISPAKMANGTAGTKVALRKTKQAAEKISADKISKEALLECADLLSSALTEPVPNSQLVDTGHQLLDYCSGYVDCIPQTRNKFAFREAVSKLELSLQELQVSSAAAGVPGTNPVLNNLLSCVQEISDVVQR
# Chain of Maternal embryonic leucine zipper kinase (Homo sapiens) (Q14680 whole entry, looked up): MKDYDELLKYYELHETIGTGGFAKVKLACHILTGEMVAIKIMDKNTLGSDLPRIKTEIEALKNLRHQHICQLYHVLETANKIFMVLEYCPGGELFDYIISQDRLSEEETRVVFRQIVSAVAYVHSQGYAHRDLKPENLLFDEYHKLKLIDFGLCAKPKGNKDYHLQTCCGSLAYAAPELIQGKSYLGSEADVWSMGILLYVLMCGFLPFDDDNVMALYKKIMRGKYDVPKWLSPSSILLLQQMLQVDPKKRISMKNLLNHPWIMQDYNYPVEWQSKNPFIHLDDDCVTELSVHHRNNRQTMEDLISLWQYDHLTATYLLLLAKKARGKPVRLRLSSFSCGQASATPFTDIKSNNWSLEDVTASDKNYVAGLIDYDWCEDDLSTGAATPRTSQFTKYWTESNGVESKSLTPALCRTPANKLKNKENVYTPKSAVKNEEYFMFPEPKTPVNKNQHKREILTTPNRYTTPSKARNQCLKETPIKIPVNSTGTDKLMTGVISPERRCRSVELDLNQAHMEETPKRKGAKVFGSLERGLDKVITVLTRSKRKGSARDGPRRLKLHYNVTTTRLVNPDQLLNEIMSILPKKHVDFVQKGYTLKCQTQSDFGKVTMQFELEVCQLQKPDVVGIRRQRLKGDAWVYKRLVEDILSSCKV
# Chain of Mitogen-activated protein kinase kinase kinase 2 (Homo sapiens) (Q9Y2U5 whole entry): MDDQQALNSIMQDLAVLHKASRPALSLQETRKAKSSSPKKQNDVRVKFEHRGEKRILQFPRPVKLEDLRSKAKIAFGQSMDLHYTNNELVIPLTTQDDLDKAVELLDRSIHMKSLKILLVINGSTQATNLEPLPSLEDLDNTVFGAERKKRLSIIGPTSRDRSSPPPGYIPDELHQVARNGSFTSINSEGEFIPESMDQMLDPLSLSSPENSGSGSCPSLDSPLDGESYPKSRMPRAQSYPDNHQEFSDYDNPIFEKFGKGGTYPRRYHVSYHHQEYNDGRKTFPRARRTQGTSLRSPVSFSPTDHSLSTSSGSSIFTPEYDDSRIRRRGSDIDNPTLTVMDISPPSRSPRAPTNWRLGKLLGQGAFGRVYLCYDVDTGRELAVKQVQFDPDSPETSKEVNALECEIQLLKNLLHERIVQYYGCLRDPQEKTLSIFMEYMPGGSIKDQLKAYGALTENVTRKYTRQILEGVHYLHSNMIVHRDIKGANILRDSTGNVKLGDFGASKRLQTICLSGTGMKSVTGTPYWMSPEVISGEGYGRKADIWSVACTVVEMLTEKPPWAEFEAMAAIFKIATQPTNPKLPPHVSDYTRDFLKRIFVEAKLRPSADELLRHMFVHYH
# Chain of Phosphatidylinositol 5-phosphate 4-kinase type-2 gamma (Homo sapiens) (Q8TBX8 whole entry): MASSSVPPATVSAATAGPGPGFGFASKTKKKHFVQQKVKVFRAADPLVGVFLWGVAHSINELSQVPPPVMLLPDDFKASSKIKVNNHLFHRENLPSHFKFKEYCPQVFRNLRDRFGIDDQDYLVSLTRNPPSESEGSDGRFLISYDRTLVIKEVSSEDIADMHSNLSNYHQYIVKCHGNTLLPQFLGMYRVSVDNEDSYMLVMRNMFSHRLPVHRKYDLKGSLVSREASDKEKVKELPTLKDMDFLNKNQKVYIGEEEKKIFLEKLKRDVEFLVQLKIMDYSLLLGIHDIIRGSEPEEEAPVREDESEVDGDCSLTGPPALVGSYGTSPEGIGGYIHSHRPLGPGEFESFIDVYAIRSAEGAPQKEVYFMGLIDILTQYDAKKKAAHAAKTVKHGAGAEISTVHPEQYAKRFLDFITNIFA
# Chain of Phosphatidylinositol 4,5-bisphosphate 3-kinase catalytic subunit alpha isoform (Homo sapiens), P42336 [Q546K] (P42336 whole entry Q546K, canonical isoform): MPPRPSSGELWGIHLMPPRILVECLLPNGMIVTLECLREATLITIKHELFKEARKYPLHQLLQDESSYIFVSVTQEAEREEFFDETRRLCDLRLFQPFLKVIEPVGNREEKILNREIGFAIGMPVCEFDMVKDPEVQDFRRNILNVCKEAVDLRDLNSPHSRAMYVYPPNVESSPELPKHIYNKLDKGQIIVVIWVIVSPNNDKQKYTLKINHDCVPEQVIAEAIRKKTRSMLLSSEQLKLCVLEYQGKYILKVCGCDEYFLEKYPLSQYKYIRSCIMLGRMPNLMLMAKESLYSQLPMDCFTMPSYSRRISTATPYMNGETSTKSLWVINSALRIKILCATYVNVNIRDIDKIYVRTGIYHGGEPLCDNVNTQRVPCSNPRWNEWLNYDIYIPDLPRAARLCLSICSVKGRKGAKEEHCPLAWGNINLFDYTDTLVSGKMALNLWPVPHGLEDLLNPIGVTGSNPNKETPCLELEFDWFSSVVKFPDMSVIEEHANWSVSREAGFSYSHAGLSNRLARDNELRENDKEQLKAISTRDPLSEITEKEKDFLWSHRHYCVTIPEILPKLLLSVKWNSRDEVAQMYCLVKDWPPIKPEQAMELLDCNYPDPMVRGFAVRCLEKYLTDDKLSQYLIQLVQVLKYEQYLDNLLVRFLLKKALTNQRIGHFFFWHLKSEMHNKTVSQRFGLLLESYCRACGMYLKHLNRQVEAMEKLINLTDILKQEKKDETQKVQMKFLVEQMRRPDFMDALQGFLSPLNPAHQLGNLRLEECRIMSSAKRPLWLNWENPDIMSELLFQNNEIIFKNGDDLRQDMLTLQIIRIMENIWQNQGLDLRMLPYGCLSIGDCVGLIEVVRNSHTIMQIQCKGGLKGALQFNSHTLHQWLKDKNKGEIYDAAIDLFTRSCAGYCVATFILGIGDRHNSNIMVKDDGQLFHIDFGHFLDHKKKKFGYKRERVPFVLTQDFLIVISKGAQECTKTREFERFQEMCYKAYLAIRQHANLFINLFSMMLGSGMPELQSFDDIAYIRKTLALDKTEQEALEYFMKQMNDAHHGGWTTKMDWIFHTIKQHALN
# Chain of 3-phosphoinositide-dependent protein kinase 1 (Homo sapiens) (O15530 whole entry): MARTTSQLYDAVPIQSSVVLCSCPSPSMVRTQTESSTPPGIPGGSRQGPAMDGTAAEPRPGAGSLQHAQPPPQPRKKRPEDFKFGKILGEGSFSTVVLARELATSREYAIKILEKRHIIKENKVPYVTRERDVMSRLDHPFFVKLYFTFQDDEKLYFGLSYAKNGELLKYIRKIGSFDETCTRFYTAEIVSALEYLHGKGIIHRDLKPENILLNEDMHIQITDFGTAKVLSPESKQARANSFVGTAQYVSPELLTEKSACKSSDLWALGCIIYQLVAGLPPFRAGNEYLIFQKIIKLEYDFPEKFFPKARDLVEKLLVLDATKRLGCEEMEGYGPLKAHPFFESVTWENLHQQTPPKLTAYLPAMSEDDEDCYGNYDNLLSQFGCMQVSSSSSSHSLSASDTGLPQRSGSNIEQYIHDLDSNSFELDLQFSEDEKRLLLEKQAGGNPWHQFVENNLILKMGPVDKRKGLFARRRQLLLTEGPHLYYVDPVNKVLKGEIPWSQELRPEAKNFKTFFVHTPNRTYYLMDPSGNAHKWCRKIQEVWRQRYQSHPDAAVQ
# Chain of Tyrosine-protein kinase Yes (Homo sapiens) (P07947 2-543 limits assumed): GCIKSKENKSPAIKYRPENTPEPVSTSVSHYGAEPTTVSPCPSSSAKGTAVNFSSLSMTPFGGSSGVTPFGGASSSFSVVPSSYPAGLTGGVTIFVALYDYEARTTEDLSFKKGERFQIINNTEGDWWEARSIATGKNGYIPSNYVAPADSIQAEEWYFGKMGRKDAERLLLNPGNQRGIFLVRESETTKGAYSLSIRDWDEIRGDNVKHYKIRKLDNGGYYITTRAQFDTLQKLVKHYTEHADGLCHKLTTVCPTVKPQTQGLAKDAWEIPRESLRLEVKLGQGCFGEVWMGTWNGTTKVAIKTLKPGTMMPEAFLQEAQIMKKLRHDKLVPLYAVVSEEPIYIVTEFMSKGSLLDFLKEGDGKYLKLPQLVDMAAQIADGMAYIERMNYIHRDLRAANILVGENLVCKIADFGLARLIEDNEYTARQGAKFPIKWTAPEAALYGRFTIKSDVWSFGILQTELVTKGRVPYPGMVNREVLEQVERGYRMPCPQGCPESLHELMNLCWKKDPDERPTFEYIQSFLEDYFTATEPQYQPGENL
smiles,measurement,setting,value
CN(C)CC#Cc1ccc(OCCCc2sc(N3CCc4cccc(C(=O)Nc5nc6ccccc6s5)c4C3)nc2C(=O)O)c(F)c1 [A-1155463],residual activity,[1],100%
same,residual activity,[2],75%
same,residual activity,[3],100%
same,residual activity,[4],87%
same,residual activity,[5],84%
same,residual activity,[6],89%
same,residual activity,[7],100%
same,residual activity,[8],88%
same,residual activity,[9],100%
same,residual activity,[10],80%
same,residual activity,[11],88%
same,residual activity,[12],79%
same,residual activity,[13],100%
same,residual activity,[14],9%
same,residual activity,[15],91%
same,residual activity,[16],96%
same,residual activity,[17],100%
same,residual activity,[18],100%
same,residual activity,[19],100%
same,residual activity,[20],78%
same,residual activity,[21],100%
same,residual activity,[22],98%
same,residual activity,[23],100%
same,residual activity,[24],100%
same,residual activity,[25],100%
same,residual activity,[26],100%
same,residual activity,[27],56%
same,residual activity,[28],100%
same,residual activity,[29],100%
same,residual activity,[30],100%
same,residual activity,[31],90%
same,residual activity,[32],100%
same,residual activity,[33],96%
same,residual activity,[34],61%
same,residual activity,[35],100%
same,residual activity,[36],95%
same,residual activity,[37],100%
same,residual activity,[38],93%
same,inhibition,[39],54.6%
same,residual activity,[40],75%
same,residual activity,[41],100%
same,residual activity,[42],100%
same,residual activity,[43],80%
same,residual activity,[44],99%
same,residual activity,[45],83%
